US20090105251A1, “Renin inhibitors” (priority 2007, published 2009)

Biological target: T1, Recombinant human renin (Homo sapiens, UniProt P00797)
T1 construct: isolate the active form (residues 67-406); made in house
T1 sequence (P00797 67-406): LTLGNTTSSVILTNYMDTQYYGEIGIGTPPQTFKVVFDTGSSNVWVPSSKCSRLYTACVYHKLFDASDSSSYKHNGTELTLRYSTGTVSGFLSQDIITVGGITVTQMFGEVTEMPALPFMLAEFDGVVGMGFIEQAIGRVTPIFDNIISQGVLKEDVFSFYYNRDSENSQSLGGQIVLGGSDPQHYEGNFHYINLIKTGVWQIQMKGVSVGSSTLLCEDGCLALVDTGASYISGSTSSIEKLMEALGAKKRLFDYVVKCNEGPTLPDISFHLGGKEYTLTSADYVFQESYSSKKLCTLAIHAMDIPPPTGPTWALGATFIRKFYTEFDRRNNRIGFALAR
Assay: In vitro enzymatic activity assay of renin inhibitors (fluorogenic peptide substrate)
Assay type: biochemical
Details: recombinant human renin 3 nM, 1 μM substrate QXL520/HiLyteFluo488 peptide, pH 7.4, 37° C., fluorescence; values given as ranges; read-out: IC50 of Exemplified Compounds Against Renin, IC50
Description: Test compounds in varying concentrations may be reacted with recombinant human renin in the presence of substrate, e.g., QXL520-γ-Abu-Ile-His-Pro-Phe-His-Leu-Val-Ile-His-Thr-Lys (HiLyteFluo488)-Arg-OH (Anaspec, San Jose, Calif.). The reaction can be followed kinetically using fluorescence (excitation λ=485 nm; emission λ=538 nm). Inhibition constants (IC50) may be calculated by non-linear curve fitting of the compound concentrations and fluorescence intensities to the standard IC50 equation.
Solutions of test compounds in varying concentrations (≦2 mM final concentration) are prepared in dimethyl sulfoxide (DMSO) and then diluted into assay buffer comprising 50 mM Hepes, 1 mM EDTA, 1 mM DTT, 0.1 mg/ml BSA, 0.01% Brij35, pH 7.4. Alternatively, the assay can be performed with a high BSA concentration, wherein the buffer contains an additional 2% BSA.
Recombinant human renin (3 nM final concentration) is added to the dilutions and pre-incubated with the compounds for 10 minutes at 37° C. As described in Examples A-C above, human renin can be obtained by expressing preprorenin (residue 1-406) in mammalian cells, treating the prorenin (residues 24-406) contained in the culture supernatant with trypsin, and isolate the active form (residues 67-406). After pre-incubation, the reaction is initiated with 1 μM of substrate QXL520-γ-Abu-Ile-His-Pro-Phe-His-Leu-Val-Ile-His-Thr-Lys (HiLyteFluo488)-Arg-OH (Anaspec, San Jose, Calif.). The final DMSO in the assay is 5%. The total volume of the reaction mixture is 20 μL, which can be placed on Greiner 384-well small volume plates.
Renin activity may be determined via fluorescence (excitation λ=485 nm; emission λ=538 nm), e.g., on a Molecular Devices SPECTROmax GEMINI XPS. The fluorescence intensity is determined upon the addition of substrate and determined again after incubation at 37° C. for one hour. The fluorescence intensity of a blank (no inhibition) using vehicle alone is also determined. Renin activity is linearly proportional to the change in fluorescence observed (final−initial).
The percent inhibition of renin at a given compound concentration is defined as:
100%×[1−(Fcompound/Fblank)]
where Fcompound is the observed fluorescence at a given concentration of test compound and Fblank is the observed fluorescence in the presence of vehicle alone.
The pIC50 value (negative log of the molar concentration of the compound that produces 50% inhibition) of a test compound is calculated by non-linear least squares curve fitting of the equation:
Percent Inhibition=100%/(1+(10^−pIC50/10^log [I]))
to percent inhibition versus compound concentration. The 50% inhibitory concentration (IC50) of a test compound is calculated by raising 10 to the negative pIC50 (10^−pIC50).

IC50 | SMILES
> 100 µM | Cc1n[nH]c(C)c1-c1ccccc1C(=O)N1CCNC[C@H]1Cc1ccccc1 [Example 28, ((R)-2-benzylpiperazin-1-yl)(2-(3,5-dimethyl-1H-pyrazol-4-yl)phenyl)methanone]
1 to 50 µM | O=C(c1c(-c2ccccc2Cl)noc1C1CC1)N1CCNC[C@H]1Cc1ccccc1 [Example 33, ((R)-2-benzylpiperazin-1-yl)(3-(2-chlorophenyl)-5-cyclopropylisoxazol-4-yl)methanone]
1 to 50 µM | CC(C)(C)n1ncc(C(=O)N2CCNC[C@H]2Cc2ccccc2)c1-c1ccccc1 [Example 38, (R)-(2-benzylpiperazin-1-yl)(1-tert-butyl-5-phenyl-1H-pyrazol-4-yl)methanone]
1 to 50 µM | O=C(c1ccccc1-c1nc2ccccc2s1)N1CCNC[C@H]1Cc1ccccc1 [Example 32, (R)-(2-(benzo[d]thiazol-2-yl)phenyl)(2-benzylpiperazin-1-yl)methanone]
1 to 50 µM | O=C(c1cncn1-c1ccccc1-c1ccccc1)N1CCNC[C@H]1Cc1ccccc1 [Example 27, ((R)-2-benzylpiperazin-1-yl)(1-(biphenyl-2-yl)-1H-imidazol-5-yl)methanone]
< 1 µM | CC(=O)NCCc1ccccc1Oc1ccccc1-c1ccsc1C(=O)N1CCNC[C@H]1Cc1ccccc1 [Example 39, N-(2-(2-(2-((R)-2-benzylpiperazine-1-carbonyl)thiophen-3-yl)phenoxy)phenethyl)acetamide]

Further lines, the compound ahead of its results:

SMILES | IC50
N#Cc1ccccc1Sc1ccccc1C(=O)N1CCNC[C@H]1Cc1ccccc1 [Example 20, (R)-2-(2-(2-benzylpiperazine-1-carbonyl)phenylthio)benzonitrile] | 1 to 50 µM
Cc1cc(C)c(C#N)c(Oc2ccccc2-c2ccsc2C(=O)N2CCNC[C@H]2Cc2ccccc2)n1 [Example 9, 2-(2-(2-((R)-2-benzylpiperazine-1-carbonyl)thiophen-3-yl)phenoxy)-4,6-dimethylnicotinonitrile] | 1 to 50 µM
COc1ccc(C(=O)c2ccccc2C(=O)N2CCNC[C@H]2Cc2ccccc2)cc1 [Example 25, (R)-(2-benzylpiperazin-1-yl)(2-(4-methoxybenzoyl)phenyl)methanone] | 50 to 100 µM
O=C(c1ccccc1-c1ccccc1)N1CCNC[C@H]1Cc1ccccc1 [Example 4, (R)-(2-benzylpiperazin-1-yl)(biphenyl-2-yl)methanone] | 1 to 50 µM
O=C(c1cncn1-c1cccc2ccccc12)N1CCNC[C@H]1Cc1ccccc1 [Example 26, ((R)-2-benzylpiperazin-1-yl)(1-(naphthalen-1-yl)-1H-imidazol-5-yl)methanone] | > 100 µM
O=C(c1ccc(F)cc1-c1ccccc1Oc1ccccc1)N1CCNC[C@H]1Cc1ccccc1 [Example 15, ((R)-2-benzylpiperazin-1-yl)(5-fluoro-2′-phenoxybiphenyl-2-yl)methanone] | 1 to 50 µM
Cc1ccc(-c2ccccc2C(=O)N2CCNC[C@H]2Cc2ccccc2)cc1C [Example 3, (R)-(2-benzylpiperazin-1-yl)(3′,4′-dimethylbiphenyl-2-yl)methanone] | < 1 µM
O=C(c1ccsc1-c1ccccc1Oc1ccccc1)N1CCNC[C@H]1Cc1ccccc1 [Example 12, ((R)-2-benzylpiperazin-1-yl)(2-(2-phenoxyphenyl)thiophen-3-yl)methanone] | < 1 µM
Cn1cc(-c2ccccc2Oc2ccccc2)c(C(=O)N2CCNC[C@H]2Cc2ccccc2)n1 [Example 17, ((R)-2-benzylpiperazin-1-yl)(1-methyl-4-(2-phenoxyphenyl)-1H-pyrazol-3-yl)methanone] | < 1 µM
O=C(c1cc(F)ccc1-c1ccccc1Oc1ccccc1)N1CCNC[C@H]1Cc1ccccc1 [Example 16, ((R)-2-benzylpiperazin-1-yl)(4-fluoro-2′-phenoxybiphenyl-2-yl)methanone] | 1 to 50 µM
N#Cc1ccccc1Oc1ccccc1-c1ccsc1C(=O)N1CCNC[C@H]1Cc1ccccc1 [Example 10, 2-(2-(2-((R)-2-benzylpiperazine-1-carbonyl)thiophen-3-yl)phenoxy)benzonitrile] | 1 to 50 µM
